According to article PMC9485725, “The AIRE G228W mutation disturbs the interaction of AIRE with its partner molecule SIRT1” (Frontiers in Immunology, 2022):

Molecular target: T1, human SIRT1 (Homo sapiens, UniProt Q96EB6)
T1 construct: purchased Sigma–Aldrich S8846
T1 sequence (Q96EB6 1-747): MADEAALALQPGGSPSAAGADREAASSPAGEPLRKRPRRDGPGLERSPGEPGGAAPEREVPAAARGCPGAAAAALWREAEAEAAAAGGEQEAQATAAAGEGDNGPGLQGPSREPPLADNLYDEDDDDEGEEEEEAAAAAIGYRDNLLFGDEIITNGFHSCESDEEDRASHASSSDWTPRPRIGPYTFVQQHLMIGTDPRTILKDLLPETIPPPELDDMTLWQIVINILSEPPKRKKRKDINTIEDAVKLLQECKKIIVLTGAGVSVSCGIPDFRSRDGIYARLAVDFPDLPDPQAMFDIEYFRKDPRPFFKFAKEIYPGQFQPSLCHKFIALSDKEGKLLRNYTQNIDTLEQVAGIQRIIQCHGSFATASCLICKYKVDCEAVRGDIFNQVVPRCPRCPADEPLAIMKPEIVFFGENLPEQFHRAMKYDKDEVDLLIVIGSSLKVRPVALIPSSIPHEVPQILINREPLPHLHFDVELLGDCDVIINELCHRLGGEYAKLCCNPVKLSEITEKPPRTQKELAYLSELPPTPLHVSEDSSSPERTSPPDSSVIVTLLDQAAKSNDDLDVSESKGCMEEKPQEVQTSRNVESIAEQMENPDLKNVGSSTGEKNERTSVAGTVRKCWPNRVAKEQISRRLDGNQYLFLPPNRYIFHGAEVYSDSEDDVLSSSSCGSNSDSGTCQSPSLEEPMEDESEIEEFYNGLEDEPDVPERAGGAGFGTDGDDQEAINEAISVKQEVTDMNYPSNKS
Experiment: Surface plasmon resonance (Biacore T200) of SAND peptides on immobilized SIRT1
Format: binding
Settings: for binding kinetics (association and dissociation) with SIRT1: SPR sensorgrams, 20, 100, 200 µM, dissociation time 1200 s; for binding kinetics (association and dissociation) with SIRT1 / association with SIRT1: contact time 300 s; for binding kinetics (association and dissociation) with SIRT1 / affinity (as seen through binding and dissociation) with SIRT1: in words; for association with SIRT1 / association with SIRT1 with increasing peptide concentration / affinity (as seen through binding and dissociation) with SIRT1: SPR; for association with SIRT1: Biacore T200, CM5 chip, human SIRT1 immobilized in 10 mM sodium acetate pH 4.0 plus 20 µM NAD+, peptides (K222 acetylated) 20, 100, 200 μM, 20 μl/min, described in words; for association with SIRT1 with increasing peptide concentration: six peptide concentrations 10, 15, 20, 50, 100, 200 µM plus control 0 µM, Supplementary Figure 1; for affinity (as seen through binding and dissociation) with SIRT1: wild-type versus mutant peptide
Experimental: The surface plasmon resonance (SPR) experiments were performed on Biacore Model T200 equipment (GE Healthcare Biosciences, Uppsala, Sweden). For the immobilization of human SIRT1 (catalog number S8846, Sigma–Aldrich, Saint Louis, MO), a CM5 sensor chip S series (GE Healthcare Biosciences) has carboxylic groups available for covalent coupling was used. All solutions used were purchased from the equipment supplier (GE Healthcare Biosciences). The procedures described here were performed automatically with the Biacore instrument using pre-established programs for binding amines in peptides or proteins.
Briefly, the carboxylic groups on the CM5 sensor chip surface were activated with EDC + NHS, forming the NHS ester reactive intermediate, which, after washing with HBS-N, readily reacted with amines dissolved in the immobilization solution. The human SIRT1 ligand was dissolved in 10 mM sodium acetate pH 4.0 plus 20 µM NAD+ (catalog number N1636, beta-nicotinamide adenine dinucleotide hydrate, Sigma–Aldrich), which was immobilized onto the Biacore sensor chip according to the manufacturer´s instructions.
To detect interactions between SIRT1 and AIRE WT or AIRE G228W mutant SAND domain peptides, different concentrations of peptides were injected onto the CM5 chip with immobilized SIRT1 protein. […] The surface was regenerated between samples by injecting 2.0 M glycine pH 2.0 (30 s, 30 μl/min) followed by injection of 2.0 M NaCl (30 s, 30 μl/min). The stabilization period between injections after regeneration was 200 s.
The respective sequences of the twenty-amino acid peptide residues (Synbio Technologies, Monmouth Junction, NJ, USA) comprising positions 211 to 230 of the SAND domain of the human AIRE protein are as follows: from the C to N-terminus, AIRE wild-type ([…]) and AIRE G228W mutant ([…]). The underlined K residue represents the position where the acetyl radical was added. The experiment determined whether the K residue underlined was acetylated or not. The AIRE wild-type or AIRE G228W mutation data are available through GenBank NCBI (https://www.ncbi.nlm.nih.gov/) accession numbers (NM_000383.4): c.682G>T G [GGG] > W [TGG], coding sequence variant autoimmune regulator (NP_000374.1): p. Gly228TrpG (Gly) > W missense variant, DbSNP (https://www.ncbi.nlm.nih.gov/snp/rs121434257) and ClinVar (https://www.ncbi.nlm.nih.gov/clinvar/variation/3313/).
Kinetic data were analyzed with Anabel Analysis of Binding Events software ([32]), available at (www.skscience.org/anabel). Data obtained with the different concentrations of AIRE WT or mutant peptides were combined in the same graph.

Sequence	binding kinetics (association and dissociation) with SIRT1 (listed as WT AIRE SAND peptide (Gly228))	binding kinetics (association and dissociation) with SIRT1 (listed as wild-type SAND domain peptide)	association with SIRT1	association with SIRT1 with increasing peptide concentration	affinity (as seen through binding and dissociation) with SIRT1	association with SIRT1 (listed as G228W mutant peptide)	association with SIRT1 (listed as mutant AIRE SAND peptide (Trp228))
IQQVFESGGSKKCIQVGGEF [wild-type SAND G228 peptide, twenty-amino acid peptide comprising positions 211 to 230 of the SAND domain of the human AIRE protein, wild-type]	associated and dissociated with SIRT1 throughout the analysis	bound faster and dissociated longer	more significant association capacity	progressive increase in the association	stronger affinity	–	–
IQQVFESGGSKKCIQVGWEF [mutant W228 SAND peptide, twenty-amino acid peptide comprising positions 211 to 230 of the SAND domain of the human AIRE protein, G228W mutant]	–	–	less able to associate with SIRT1	not observed	weaker association	weaker association	lesser association affinity
